From patent US9055741B2, “Contacting crop plants with compositions” (Rohm and Haas Company, priority 2006, dated 2015)

Key:
Format in all cases: in vivo
fusarium disease = assay: Wheat field treatment: damage from fusarium disease; settings: untreated 6
Protocol: (§1) Spray tank was filled with approximately two-thirds of the total volume of water required. The amount of Powder 1 or Powder 2 was weighed according to the rate and total volume of spray being prepared. The appropriate amount of was calculated to give 1% v/v of total spray volume. Adjuvant 1 was added to the spray tank, which was agitated until the mixture turned milky white. Powder 1 or Powder 2 was added to the spray container, which was then gently (not vigorously) agitated. The remaining water was added, making sure all of the powder was wet and washed off of the sides of the tank (if any had deposited there). The spray tank was then swirled or stirred for at least two minutes (2-5 minutes) to ensure good mixing. Between 5 and 60 minutes thereafter, plants were sprayed with the mixture.
(§2) Flat fan nozzles were used, producing droplet size of 100 to 500 micrometers. Spray rate of mixture was 500 liter per hectare. Backpack sprayer was used. Spraying was performed before 10:00 am.
(§3) Using methods similar to those of Example 1, wheat was sprayed at stage F10.5. Frost damage was assessed by examining the portion of the seed head damaged; the percentage of barren husks is reported. Damage from fusarium disease was assessed as a percentage of seed heads damaged by the disease organism.

Fuji apple trees = assay: Fuji apples: staining after harvest and storage; settings: 250 ppm, approximately 211 g/ha (520 g/acre) each, Untreated 12
Excerpt: Fuji apple trees were sprayed prior to harvest either one or two times, with spray containing 250 ppm of 1-MCP. Each spraying provided treatment of approximately 211 g/ha ([…]). After harvesting and storage, the apples were inspected for staining.

cotton = assay: Cotton field treatment: lint yield; settings: UTC 228.0, Adjuvant 1 only 245.1
Protocol: as §1, §2
Using methods similar to those of Example 1, cotton was also tested. Each treated group of plants was treated either two or three times, as follows:
The crop yield was assessed as the weight of lint per hectare. Treatment types, treatment amounts (grams of AI per hectare), and results were as follows. Many of the treatments lead to improvements in the yield of lint.

wheat = assay: Wheat field treatment: yield and frost damage; settings: for Frost Damage (percentage of barren husks): untreated 21; for Yield: untreated 3890
Protocol: as §1, §2, §3

Soybean plants = assay: Soybean crop yield and protein content; settings: for Protein %: untreated 36.93/36.87; for Yield: untreated 3607.20/3687.67
Protocol: as §1, §2
Soybean plants were treated using methods similar to those of Example 1. Treatment was performed when the plants were at one or more of the following growth stages: R2, R3, and R5.5.

[1] = system: Golden Delicious apple trees; assay: Golden Delicious fruit drop after pre-harvest spray; settings: NAA 20 ppm, AVG 125 ppm, Powder 1 375 g AI/ha
Protocol: as §1, §2
Using methods similar to those of Example 1, Golden Delicious apple trees were sprayed one week before the apples would normally be harvested for commercial use. The apples were left on the trees to observe postharvest drop. The spray containing Powder 1 was used to give 375 gram of AI per hectare. NAA was used at 20 ppm, and AVG was used at 125 ppm. […]

[2] = 1 g/ha, timing R2, R3, and R5.5
[3] = 10 g/ha, timing R2, R3, and R5.5
[4] = 30 g/ha, timing R2, R3, and R5.5
[5] = dosage Exaggerated 1, every 2 weeks
[6] = dosage Exaggerated 2, every 2 weeks

CC1=CC1 [1-MCP, 1-methylcyclopropene]
Disease Damage (percentage of seed heads damaged) (fusarium disease; 10 g/ha AI at stage F10.5): 0.5%
Disease Damage (percentage of seed heads damaged) (fusarium disease; 25 g/ha AI at stage F10.5): 3%
% Staining (Fuji apple trees; 1 spray application): 8.5%
% Staining (Fuji apple trees; 2 spray applications): 3%
Lint (cotton; 250 g/ha AI, type EB 2): 245.3 kg/ha
Lint (cotton; 250 g/ha AI, type EB 3): 250.2 kg/ha
Lint (cotton; 250 g/ha AI, type PHS 2): 230.6 kg/ha
Lint (cotton; 250 g/ha AI, type PHS 3): 231.8 kg/ha
Lint (cotton; 500 g/ha AI, type EB 2): 234.2 kg/ha
Lint (cotton; 500 g/ha AI, type EB 3): 261.3 kg/ha
Lint (cotton; 500 g/ha AI, type PHS 2): 257.6 kg/ha
Lint (cotton; 500 g/ha AI, type PHS 3): 262.0 kg/ha
Lint (cotton; 1250 g/ha AI, type EB 2): 235.0 kg/ha
Lint (cotton; 1250 g/ha AI, type EB 3): 260.7 kg/ha
Lint (cotton; 1250 g/ha AI, type PHS 2): 253.9 kg/ha
Lint (cotton; 1250 g/ha AI, type PHS 3): 241.4 kg/ha
Frost Damage (percentage of barren husks) (wheat; 10 g/ha AI at stage F10.5): 6%
Yield (wheat; 10 g/ha AI at stage F10.5): 4458 kg dry weight/ha
Frost Damage (percentage of barren husks) (wheat; 25 g/ha AI at stage F10.5): 3%
Yield (wheat; 25 g/ha AI at stage F10.5): 4522 kg dry weight/ha
Protein % (Soybean plants; [2]): 38.4%
Yield (Soybean plants; [2]): 3955.68 kg/ha
Protein % (Soybean plants; 1 g/ha, timing R2): 37.88%
Yield (Soybean plants; 1 g/ha, timing R2): 3691.44 kg/ha
Protein % (Soybean plants; 1 g/ha, timing R2 and R3): 37.85%
Yield (Soybean plants; 1 g/ha, timing R2 and R3): 3786.48 kg/ha
Protein % (Soybean plants; 1 g/ha, timing R2 and R5.5): 38.45%
Yield (Soybean plants; 1 g/ha, timing R2 and R5.5): 3704.04 kg/ha
Protein % (Soybean plants; 1 g/ha, timing R3): 37.89%
Yield (Soybean plants; 1 g/ha, timing R3): 3795.48 kg/ha
Protein % (Soybean plants; 1 g/ha, timing R3 and R5.5): 38.75%
Yield (Soybean plants; 1 g/ha, timing R3 and R5.5): 3763.80 kg/ha
Protein % (Soybean plants; 1 g/ha, timing R5.5): 38.25%
Yield (Soybean plants; 1 g/ha, timing R5.5): 3659.76 kg/ha
Protein % (Soybean plants; [3]): 37.87%
Yield (Soybean plants; [3]): 4119.48 kg/ha
Protein % (Soybean plants; 10 g/ha, timing R2): 37.67%
Yield (Soybean plants; 10 g/ha, timing R2): 3671.64 kg/ha
Protein % (Soybean plants; 10 g/ha, timing R2 and R3): 38.27%
Yield (Soybean plants; 10 g/ha, timing R2 and R3): 3872.84 kg/ha
Protein % (Soybean plants; 10 g/ha, timing R2 and R5.5): 38.63%
Yield (Soybean plants; 10 g/ha, timing R2 and R5.5): 3817.80 kg/ha
Protein % (Soybean plants; 10 g/ha, timing R3): 38.64%
Yield (Soybean plants; 10 g/ha, timing R3): 3757.68 kg/ha
Protein % (Soybean plants; 10 g/ha, timing R3 and R5.5): 38.3%
Yield (Soybean plants; 10 g/ha, timing R3 and R5.5): 3791.52 kg/ha
Protein % (Soybean plants; 10 g/ha, timing R5.5): 38.32%
Yield (Soybean plants; 10 g/ha, timing R5.5): 3721.32 kg/ha
Protein % (Soybean plants; [4]): 37.48%
Yield (Soybean plants; [4]): 4347.00 kg/ha
Protein % (Soybean plants; 30 g/ha, timing R2): 38.08%
Yield (Soybean plants; 30 g/ha, timing R2): 3702.24 kg/ha
Protein % (Soybean plants; 30 g/ha, timing R2 and R3): 36.73%
Yield (Soybean plants; 30 g/ha, timing R2 and R3): 4118.76 kg/ha
Protein % (Soybean plants; 30 g/ha, timing R2 and R5.5): 38.56%
Yield (Soybean plants; 30 g/ha, timing R2 and R5.5): 3844.44 kg/ha
Protein % (Soybean plants; 30 g/ha, timing R3): 38.33%
Yield (Soybean plants; 30 g/ha, timing R3): 3747.24 kg/ha
Protein % (Soybean plants; 30 g/ha, timing R3 and R5.5): 37.87%
Yield (Soybean plants; 30 g/ha, timing R3 and R5.5): 3946.68 kg/ha
Protein % (Soybean plants; 30 g/ha, timing R5.5): 37.58%
Yield (Soybean plants; 30 g/ha, timing R5.5): 3817.80 kg/ha
Protein % (Soybean plants; [5]): 38.62%
Yield (Soybean plants; [5]): 3923.64 kg/ha
Protein % (Soybean plants; [6]): 37.89%
Yield (Soybean plants; [6]): 4167.00 kg/ha

O=C(O)Cc1cccc2ccccc12 [NAA, 1-naphthaleneacetic acid]
number of dropped fruit per tree ([1]; day 0 after treatment, UTC 0): 0
number of dropped fruit per tree ([1]; day 7 after treatment, UTC 18): 5
number of dropped fruit per tree ([1]; day 21 after treatment, UTC 45): 20
number of dropped fruit per tree ([1]; day 28 after treatment, UTC 115): 65
number of dropped fruit per tree ([1]; day 35 after treatment, UTC 195): 118
number of dropped fruit per tree ([1]; day 62 after treatment, UTC 30): 11
